# Experimental data taken from patent publication US20220370464A1, “COMPOSITIONS AND METHODS OF TREATING OR PREVENTING OCULAR INFECTIONS WITH FILOCICLOVIR” (Microbiotix, Inc., priority 2019, published 2022).
# Like-named read-outs stand apart in the source and are kept apart here.
# Assays:
# [1] = test system: AdV 4; assay: Antiviral EC50 against AdV 4 (method not given); assay type: cell-based, adenovirus 4; settings: Human mastadenovirus E; AdV 4, summary table
# [2] = test system: AdV6; assay: Immunofluorescence assay of AdV6-infected A549 cells (DBP and hexon staining); assay type: cell-based, adenovirus 6; settings: 27 hours post-infection
# Description: (§1) Human A549 cells on glass coverslips in 6-well plates were infected at an MOI of 5 PFU/cell with either AdV5 or AdV6 or were mock-infected. After 1 hour, filociclovir was added to a final concentration of 40, 10, 4, or 0 μM. At 27 hours post-infection, the A549 cells were fixed in paraformaldehyde (3.7% in PBS) and permeabilized with methanol. Cells were stained for the Adenovirus DNA-binding protein (DBP; green staining in images) and adenovirus hexon (red staining in images). DBP staining will be […] and uniform during early AdV infection (prior to AdV DNA replication). DBP associates with replication centers as the infection progresses. The replication centers are initially small “dots” (each dot results from one incoming AdV genome). The replication centers will expand and “multiply” as DNA replication takes place. The nuclei become enlarged and misshapen as infection progresses. AdV hexon, the most abundant component of the AdV viral capsid, is not expressed until after DNA replication is taking place and is therefore considered to be a “late” AdV protein.
# [3] = test system: HHV-6A; settings: β Herpesvirus, cited from earlier work
# [4] = test system: HHV-6B; settings: cited from earlier work
# [5] = test system: Adenovirus 6 (AdV6); assay: Neutral red survival assay, AdV6 in A549 cells; assay type: cell-based
# Description: Similar experiments were carried out with filociclovir against adenovirus 6, adenovirus 7, and adenovirus 8.
# (§2) The neutral red cell cytotoxicity assay is used to detect cell viability or drug cytotoxicity. The principle of this assay is based on the detection of viable cells via the uptake of the dye neutral red. Neutral red is a eurhodin dye that stains lysosomes in viable cells. Viable cells can take up neutral red via active transport and incorporate the dye into their lysosomes, but non-viable cells cannot not take up this chromophore. Consequently, after washing, viable cells can release the incorporated dye under acidified-extracted conditions. The amount of released dye can be used to determine the total number of viable cells or drug cytotoxicity. As such, cytotoxicity is expressed as a concentration-dependent reduction of the uptake of neutral red after exposure to the compound under investigation.
# (§3) Neutral red survival assays were carried out in a 96-well format. Briefly, A549 adenocarcinomic human alveolar basal epithelial cells were plated at a concentration of 6×10^3 cells per well one day prior to infection. AdV6 infections were carried out at 5×10^3 PFU per well (an estimated 0.5 PFU/cell at the time of infection). […] Filociclovir plates were read and the results were graphed using GraphPad Prism graphing and statistical software (GraphPad Software, San Diego, Calif.).
# [6] = test system: AdV 6; assay: Antiviral EC50 against AdV 6 (method not given); assay type: cell-based, adenovirus 6; settings: Human mastadenovirus C; AdV 6, summary table
# [7] = test system: Adenovirus 5 (AdV5); settings: AdV 5‡, summary table; cited from earlier work
# [8] = test system: JC Virus; settings: Polyomavirus, cited from earlier work
# [9] = Pharmacokinetics in immunosuppressed Syrian hamsters; assay type: in vivo; settings: for detectability after administration (FIG. 5): 6 hours after administration
# Description: In order to test the pharmacokinetics of filociclovir, Syrian hamsters were given either an oral (p.o. 50 mg/kg) or intravenous (i.v. 10 mg/kg) dose of filociclovir.
# For i.v. administration, filociclovir was dissolved in DMSO (Sigma D2650) and then diluted with water to a final concentration of 5 mg/ml for filociclovir and 75% DMSO. The dosing solutions were prepared one day before use and stored at 4° C.
# Male hamsters were purchased from Envigo (Harlan) at ˜100 g body weight. […] The animals received three injections of CP before the administration of filociclovir. Two groups of animals (12 hamsters/group) were used for the two routes of administrations. In addition, three untreated animals (the same three hamsters for both routes) served as mock controls. The p.o. and i.v. experiments were performed on two consecutive days. As the hamsters weighed approximately 100 g, (+/−10%), they were administered 1 ml and 0.2 ml for the p.o. and i.v. routes, respectively, to achieve the desired dose. For both routes, 3 hamsters were sacrificed at 0.5, 1, 3, and 6 h post dosing.
# Plasma and liver samples were collected from all animals and stored at −80° C. until analyzed by LC MS as follows: • All samples and standards were processed on ice; • Standard curve is constructed with authentic compound (fresh powder DMSO reconstitution spiked into “blank” Hamster plasma) and all samples spiked with 500 ng/mL carbamezapine (Internal Standard); • Early time point samples are diluted in “blank” hamster plasma (try to attain concentrations on the standard curve); • Sample extracted with 2× sample volume with 0.1% ammonium formate in methanol (i.e. 30 μL sample+60 μL 0.1% ammonium formate in methanol); • Extracted samples centrifuged on maximum setting in microfuge; • Supernatants are analyzed by LC/MS/MS Dynamic Multiple Reaction Monitoring (DMRM) utilizing custom method.
# [10] = test system: AdV 7; assay: Antiviral EC50 against AdV 7 (method not given); assay type: cell-based, adenovirus 7; settings: Human mastadenovirus B; AdV 7, summary table
# [11] = test system: AdV5; assay: Immunofluorescence assay of AdV5-infected A549 cells (DBP and hexon staining); assay type: cell-based, adenovirus 5; settings: 27 hours post-infection
# Description: as §1
# [12] = Cytotoxicity, neutral red, uninfected drug control wells of A549 cells; assay type: cell-based; settings: human, AdV6 row of Table 2
# Description: as §2
# as §3, with “infection). Filociclovir was serially diluted 1:3 on separate 96-well plates with a no drug final row as control.” for “infection).”
# [13] = test system: AdV 8; assay: Antiviral EC50 against AdV 8 (method not given); assay type: cell-based, adenovirus 8; settings: unidentified adenovirus; AdV 8, summary table
smiles,measurement,setting,value
"Nc1nc2c(ncn2/C=C2/CC2(CO)CO)c(=O)[nH]1 [Filociclovir, 2-amino-9-{(Z)-[2,2-bis(hydroxymethyl)cyclopropylidene]methyl}-3,9-dihydro-6H-purin-6-one]",EC50,[1],2400 nM
same,hexon-positive cells,"[2]; AdV6, A549, 4 μM",Some hexon-positive cells
same,hexon-positive cells,"[2]; AdV6, A549, 10 μM",extremely few hexon-positive cells
same,hexon-positive cells,"[2]; AdV6, A549, 40 μM",No hexon-positive cells
same,EC50,[3]; listed as filociclovir,≤ 10000 nM
same,EC50,[3],1300 nM
same,EC50,[4],2300 ± 1000 nM
same,EC50,[4]; listed as filociclovir,≤ 10000 nM
same,concentration effective to improve viability of AdV6 infected cells (FIG. 2),"[5]; A549 cells, 6 days post-infection, 'as low as'",≥ 10^−1 μM
same,CC50/EC50,[5]; AdV6,27
same,EC50,[6],2000 nM
same,EC50,[7],2200 ± 400 nM
same,EC50,[8]; listed as filociclovir,≤ 50000 nM
same,EC50,[8],46000 ± 44000 nM
same,oral bioavailability,[9]; hamsters,good oral bioavailability
same,detectability after administration (FIG. 5),[9]; i.v. 10 mg/kg,still detectable
same,detectability after administration (FIG. 5),[9]; p.o. 50 mg/kg,still detectable
same,EC50,[10],1000 nM
same,hexon-positive cells,"[11]; AdV5, A549, 4 μM",Some hexon-positive cells
same,hexon-positive cells,"[11]; AdV5, A549, 10 μM",extremely few hexon-positive cells
same,hexon-positive cells,"[11]; AdV5, A549, 40 μM",No hexon-positive cells
same,CC50 at 6 days,[12],> 100000 nM
same,EC50,[13],2000 nM
